Test results from ChEMBL document CHEMBL1201862, “PubChem BioAssay data set” (2004).
Active and inactive are the calls of the source.

What was measured:
[1] = target: T1, Fatty acid synthase (Homo sapiens, UniProt P49327); test: FAS thioesterase domain inhibitors, dose response, biochemical, kinetic fluorescence intensity (AID 624326); format: functional;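 note: rate of fluorescence rise from hydrolysis of a fluorogenic O-methyl fluorescein ester substrate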
[2] = target: T1, Fatty acid synthase; test: FAS thioesterase domain inhibitors, dose response, biochemical, endpoint fluorescence intensity, uHTS hits (AID 624327); format: functional;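 note: fluorescence from hydrolysis of an O-methyl fluorescein acyl ester substrate by the enzyme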
[3] = target: Prothrombin (Homo sapiens, UniProt P00734); test: Thrombin 1536 HTS Dose Response Confirmation. [Related pubchem assays: 1046 (Thrombin 1536 HTS; hits were confirmed in this assay)]; format: functional
[4] = target: T2, Cytochrome P450 1A2 (Homo sapiens, UniProt P05177);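 note: PubChem cytochrome P450 panel assay, CYP1A2 panel member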
T2 sequence (P05177 whole entry): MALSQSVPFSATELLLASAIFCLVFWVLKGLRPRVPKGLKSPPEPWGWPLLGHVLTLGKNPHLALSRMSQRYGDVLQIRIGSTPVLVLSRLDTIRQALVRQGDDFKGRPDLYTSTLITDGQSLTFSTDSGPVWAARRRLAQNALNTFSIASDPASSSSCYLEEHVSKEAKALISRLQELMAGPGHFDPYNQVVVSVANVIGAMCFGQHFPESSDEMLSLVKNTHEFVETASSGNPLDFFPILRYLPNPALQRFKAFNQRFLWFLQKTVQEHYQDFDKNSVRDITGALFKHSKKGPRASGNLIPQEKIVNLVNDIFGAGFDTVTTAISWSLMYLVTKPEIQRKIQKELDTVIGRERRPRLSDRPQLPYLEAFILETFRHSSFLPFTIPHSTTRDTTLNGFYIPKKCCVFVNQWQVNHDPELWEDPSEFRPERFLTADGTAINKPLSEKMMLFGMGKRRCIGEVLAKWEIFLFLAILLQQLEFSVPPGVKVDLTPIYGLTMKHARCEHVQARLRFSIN

[5] = target: Cytochrome P450 2C9 (Homo sapiens, UniProt P11712)
[6] = target: Estrogen receptor beta (Homo sapiens, UniProt Q92731);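 note: recombinant ER-beta bound to coactivator SRC1 peptide in presence of estradiol agonist; inhibitors block coactivator peptide binding and lower the FRET signal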
[7] = target: T3, Corticotropin-releasing factor receptor 2/Corticotropin-releasing factor-binding protein (Homo sapiens, UniProt P24387+Q13324); test: activators of CRF receptor 2 with binding protein – uHTS hits, confirmation (AID 602473); format: functional; settings: read-out: EC50_Mean
T3 sequence (Q13324 whole entry): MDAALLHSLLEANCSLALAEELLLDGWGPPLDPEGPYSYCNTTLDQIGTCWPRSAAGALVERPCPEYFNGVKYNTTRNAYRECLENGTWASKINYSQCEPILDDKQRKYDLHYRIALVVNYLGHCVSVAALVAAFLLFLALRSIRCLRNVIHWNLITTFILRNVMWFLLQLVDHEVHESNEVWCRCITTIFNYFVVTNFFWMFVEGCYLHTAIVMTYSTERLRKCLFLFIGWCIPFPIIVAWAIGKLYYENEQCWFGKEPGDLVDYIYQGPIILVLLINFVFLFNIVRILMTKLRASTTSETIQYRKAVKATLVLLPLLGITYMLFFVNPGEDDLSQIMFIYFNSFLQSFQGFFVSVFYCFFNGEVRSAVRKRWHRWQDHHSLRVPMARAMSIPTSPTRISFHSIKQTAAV
T3 sequence (P24387 whole entry): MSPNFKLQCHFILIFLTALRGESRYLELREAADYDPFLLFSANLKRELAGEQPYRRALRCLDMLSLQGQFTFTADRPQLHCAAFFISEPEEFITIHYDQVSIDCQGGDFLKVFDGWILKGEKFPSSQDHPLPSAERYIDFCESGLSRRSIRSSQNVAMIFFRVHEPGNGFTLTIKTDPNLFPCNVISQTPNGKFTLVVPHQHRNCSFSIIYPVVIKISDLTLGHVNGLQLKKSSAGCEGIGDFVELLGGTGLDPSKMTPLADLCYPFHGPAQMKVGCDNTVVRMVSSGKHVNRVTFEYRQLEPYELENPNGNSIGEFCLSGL

[8] = target: T4, DNA repair protein RAD52 homolog (Homo sapiens, UniProt P43351); format: functional, biochemical
T4 sequence (P43351 whole entry): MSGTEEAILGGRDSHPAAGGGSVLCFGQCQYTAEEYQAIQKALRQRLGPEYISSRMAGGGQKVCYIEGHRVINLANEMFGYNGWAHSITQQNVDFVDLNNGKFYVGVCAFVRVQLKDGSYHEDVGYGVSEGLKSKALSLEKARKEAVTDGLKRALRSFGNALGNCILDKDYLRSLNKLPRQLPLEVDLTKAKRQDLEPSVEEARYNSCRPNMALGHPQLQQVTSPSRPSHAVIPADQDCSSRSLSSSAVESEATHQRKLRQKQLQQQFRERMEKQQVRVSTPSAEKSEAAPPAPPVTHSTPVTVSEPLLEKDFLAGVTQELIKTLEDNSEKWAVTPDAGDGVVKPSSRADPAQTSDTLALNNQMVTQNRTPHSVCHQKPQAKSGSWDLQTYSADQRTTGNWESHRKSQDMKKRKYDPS

[9] = tested on: Streptococcus sp. 'group A'; test: growth inhibition of control SK(-) GAS strain, dose response, counter-screen for streptokinase expression inhibitor project, luminescence, kanamycin, BacTiterGlo, confirmation (AID 1900); format: functional, organism-based
[10] = CRF-BP/CRF-R2 complex antagonists, dose response, cell-based, uHTS hits, 384-well (AID 651639); format: functional, Homo sapiens; settings: read-out: IC50_Mean
[11] = HEp-2 cell cytotoxicity, dose response, cytotoxicity control for RSV inhibitor project, HTS (AID 2410); format: functional; settings: human respiratory syncytial virus
[12] = tested on: Streptococcus; test: Group A Streptococcus viability loss, dose response, counter-screen for streptokinase expression inhibitor project, luminescence, BacTiterGlo (AID 1915); format: functional, organism-based;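 note: potency for reduction of bacterial viability or growth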
[13] = target: T5, Streptokinase A (Streptococcus pyogenes serotype M1, UniProt P10520); test: S. pyogenes streptokinase expression inhibitors, potency, dose response, plasminogen activation absorbance, OD405 (AID 1914); format: functional, Streptococcus pyogenes M1 GAS;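 note: secreted streptokinase activity via plasminogen activation per viability signal from cell pellet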
T5 sequence (P10520 whole entry): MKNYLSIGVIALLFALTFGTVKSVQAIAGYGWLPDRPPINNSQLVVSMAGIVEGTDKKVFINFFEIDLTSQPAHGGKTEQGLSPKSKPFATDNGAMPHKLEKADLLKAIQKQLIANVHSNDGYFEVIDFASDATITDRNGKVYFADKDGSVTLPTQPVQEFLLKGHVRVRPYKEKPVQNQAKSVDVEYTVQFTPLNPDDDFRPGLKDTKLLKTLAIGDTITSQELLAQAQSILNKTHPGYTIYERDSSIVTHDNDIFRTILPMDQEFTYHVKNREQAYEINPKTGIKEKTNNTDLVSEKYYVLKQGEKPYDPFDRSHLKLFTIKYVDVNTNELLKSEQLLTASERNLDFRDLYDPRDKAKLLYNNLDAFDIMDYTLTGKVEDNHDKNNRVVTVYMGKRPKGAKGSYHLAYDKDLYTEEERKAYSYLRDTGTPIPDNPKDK

[14] = target: T3, Corticotropin-releasing factor receptor 2/Corticotropin-releasing factor-binding protein; test: Dose Response confirmation of uHTS hits for small molecule antagonists of the CRF-binding protein and CRF-R2 receptor complex.; format: functional; settings: read-out: IC50_Mean
[15] = target: T6, Heat shock factor protein 1 (Mus musculus, UniProt P38532); test: HSF1 potentiators in luciferase reporter cells, confirmation, cell-based, NIH3T3, luminescence, dose retest (AID 435004); format: functional;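 note: stress induced by proteasome inhibitor MG132 added 30 min after compound; luciferase reporter driven by HSF1 response element in NIH3T3 cells; actives raise luminescence as potentiators of the MG132 stress response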
T6 sequence (P38532 whole entry): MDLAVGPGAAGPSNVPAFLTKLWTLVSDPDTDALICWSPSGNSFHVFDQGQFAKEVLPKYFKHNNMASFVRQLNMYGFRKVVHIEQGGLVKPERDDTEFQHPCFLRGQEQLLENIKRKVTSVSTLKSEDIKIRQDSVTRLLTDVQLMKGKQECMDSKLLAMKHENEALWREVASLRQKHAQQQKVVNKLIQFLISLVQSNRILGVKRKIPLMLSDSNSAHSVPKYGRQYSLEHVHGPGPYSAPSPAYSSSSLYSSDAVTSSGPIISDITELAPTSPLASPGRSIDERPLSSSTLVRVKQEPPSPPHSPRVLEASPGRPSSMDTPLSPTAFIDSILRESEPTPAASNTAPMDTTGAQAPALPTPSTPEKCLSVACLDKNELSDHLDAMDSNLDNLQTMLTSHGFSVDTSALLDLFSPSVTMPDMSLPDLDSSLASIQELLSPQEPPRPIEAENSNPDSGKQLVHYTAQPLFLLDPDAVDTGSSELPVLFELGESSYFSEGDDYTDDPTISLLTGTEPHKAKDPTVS

[16] = tested on: Vero; test: cells; format: functional; settings: Chlorocebus sabaeus

T1 sequence (P49327 whole entry, the tested form may be a part): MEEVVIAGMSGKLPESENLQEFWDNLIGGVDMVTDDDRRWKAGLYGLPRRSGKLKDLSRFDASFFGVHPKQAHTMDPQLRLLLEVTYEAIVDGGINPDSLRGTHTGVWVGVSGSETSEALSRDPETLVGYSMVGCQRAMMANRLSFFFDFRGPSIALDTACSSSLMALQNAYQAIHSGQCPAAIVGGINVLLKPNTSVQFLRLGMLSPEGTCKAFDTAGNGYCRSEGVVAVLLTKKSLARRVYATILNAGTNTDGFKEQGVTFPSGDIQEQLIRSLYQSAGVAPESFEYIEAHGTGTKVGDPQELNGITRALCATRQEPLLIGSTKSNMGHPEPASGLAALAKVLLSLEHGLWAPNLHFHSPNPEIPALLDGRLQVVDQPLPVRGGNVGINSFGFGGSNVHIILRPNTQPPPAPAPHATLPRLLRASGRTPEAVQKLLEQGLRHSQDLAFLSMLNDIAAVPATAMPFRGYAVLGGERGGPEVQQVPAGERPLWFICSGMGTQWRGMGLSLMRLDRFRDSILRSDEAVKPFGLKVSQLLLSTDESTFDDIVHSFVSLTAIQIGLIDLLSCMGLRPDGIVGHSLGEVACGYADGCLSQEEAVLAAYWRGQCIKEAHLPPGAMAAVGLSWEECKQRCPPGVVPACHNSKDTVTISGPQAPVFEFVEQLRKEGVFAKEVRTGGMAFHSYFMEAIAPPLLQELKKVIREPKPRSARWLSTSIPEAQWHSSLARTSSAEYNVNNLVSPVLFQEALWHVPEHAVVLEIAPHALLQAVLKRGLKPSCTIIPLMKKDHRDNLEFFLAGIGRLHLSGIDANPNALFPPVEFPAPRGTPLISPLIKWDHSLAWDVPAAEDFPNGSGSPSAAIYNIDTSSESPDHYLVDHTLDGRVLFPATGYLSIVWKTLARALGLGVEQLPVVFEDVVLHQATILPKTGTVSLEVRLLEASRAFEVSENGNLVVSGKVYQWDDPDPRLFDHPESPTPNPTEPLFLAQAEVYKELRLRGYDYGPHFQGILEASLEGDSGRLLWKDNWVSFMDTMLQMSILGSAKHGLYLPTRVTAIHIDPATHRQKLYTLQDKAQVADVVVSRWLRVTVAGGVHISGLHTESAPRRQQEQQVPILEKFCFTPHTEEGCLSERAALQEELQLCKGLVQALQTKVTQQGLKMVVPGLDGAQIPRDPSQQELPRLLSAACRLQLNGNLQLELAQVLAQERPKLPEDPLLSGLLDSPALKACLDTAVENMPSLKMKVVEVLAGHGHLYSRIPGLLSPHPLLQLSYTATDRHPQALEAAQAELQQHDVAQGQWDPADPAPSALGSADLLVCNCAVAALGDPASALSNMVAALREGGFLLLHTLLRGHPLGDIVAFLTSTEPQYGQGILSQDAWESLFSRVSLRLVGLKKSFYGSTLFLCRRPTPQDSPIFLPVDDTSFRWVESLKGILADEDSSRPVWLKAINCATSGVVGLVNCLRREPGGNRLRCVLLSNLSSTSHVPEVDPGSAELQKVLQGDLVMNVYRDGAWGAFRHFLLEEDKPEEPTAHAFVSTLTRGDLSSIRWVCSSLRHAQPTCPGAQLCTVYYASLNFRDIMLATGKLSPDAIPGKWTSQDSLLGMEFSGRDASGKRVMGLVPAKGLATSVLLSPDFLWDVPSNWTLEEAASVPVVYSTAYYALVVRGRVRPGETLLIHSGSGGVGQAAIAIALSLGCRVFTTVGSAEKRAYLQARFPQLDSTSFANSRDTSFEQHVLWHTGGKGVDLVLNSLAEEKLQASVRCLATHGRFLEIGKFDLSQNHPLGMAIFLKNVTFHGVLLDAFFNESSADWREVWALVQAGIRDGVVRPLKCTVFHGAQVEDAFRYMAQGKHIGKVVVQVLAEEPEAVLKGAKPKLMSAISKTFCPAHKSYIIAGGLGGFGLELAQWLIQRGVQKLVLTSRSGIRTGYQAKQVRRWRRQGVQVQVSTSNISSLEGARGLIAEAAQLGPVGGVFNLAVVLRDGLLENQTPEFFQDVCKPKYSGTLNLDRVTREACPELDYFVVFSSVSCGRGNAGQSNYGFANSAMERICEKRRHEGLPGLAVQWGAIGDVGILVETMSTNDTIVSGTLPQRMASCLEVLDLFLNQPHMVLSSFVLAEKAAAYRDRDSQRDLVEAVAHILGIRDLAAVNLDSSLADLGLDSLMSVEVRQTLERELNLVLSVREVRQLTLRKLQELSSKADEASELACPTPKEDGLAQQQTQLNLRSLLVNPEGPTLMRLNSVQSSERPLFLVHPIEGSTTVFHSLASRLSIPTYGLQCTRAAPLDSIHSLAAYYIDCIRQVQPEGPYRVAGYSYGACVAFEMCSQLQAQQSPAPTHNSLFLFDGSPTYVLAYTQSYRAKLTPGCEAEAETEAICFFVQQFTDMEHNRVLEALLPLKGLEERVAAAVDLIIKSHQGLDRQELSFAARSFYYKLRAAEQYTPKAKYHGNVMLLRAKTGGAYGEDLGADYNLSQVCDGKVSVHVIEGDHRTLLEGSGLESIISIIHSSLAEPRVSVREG
Chain of Estrogen receptor beta (Q92731 whole entry): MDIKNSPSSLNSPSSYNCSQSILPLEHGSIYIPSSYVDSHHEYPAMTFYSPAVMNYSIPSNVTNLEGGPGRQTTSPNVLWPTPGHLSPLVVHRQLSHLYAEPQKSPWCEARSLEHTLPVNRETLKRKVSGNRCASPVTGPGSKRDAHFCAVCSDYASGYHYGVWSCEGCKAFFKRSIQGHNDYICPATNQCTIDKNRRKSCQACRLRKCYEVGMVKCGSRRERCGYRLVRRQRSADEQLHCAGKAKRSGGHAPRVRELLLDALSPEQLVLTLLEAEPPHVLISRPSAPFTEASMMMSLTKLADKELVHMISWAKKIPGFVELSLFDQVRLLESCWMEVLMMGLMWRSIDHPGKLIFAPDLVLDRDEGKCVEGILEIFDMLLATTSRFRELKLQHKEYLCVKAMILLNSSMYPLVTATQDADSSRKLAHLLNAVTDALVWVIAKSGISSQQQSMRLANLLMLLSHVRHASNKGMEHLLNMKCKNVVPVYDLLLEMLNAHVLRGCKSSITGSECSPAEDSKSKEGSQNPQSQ
Chain of Cytochrome P450 2C9 (P11712 whole entry): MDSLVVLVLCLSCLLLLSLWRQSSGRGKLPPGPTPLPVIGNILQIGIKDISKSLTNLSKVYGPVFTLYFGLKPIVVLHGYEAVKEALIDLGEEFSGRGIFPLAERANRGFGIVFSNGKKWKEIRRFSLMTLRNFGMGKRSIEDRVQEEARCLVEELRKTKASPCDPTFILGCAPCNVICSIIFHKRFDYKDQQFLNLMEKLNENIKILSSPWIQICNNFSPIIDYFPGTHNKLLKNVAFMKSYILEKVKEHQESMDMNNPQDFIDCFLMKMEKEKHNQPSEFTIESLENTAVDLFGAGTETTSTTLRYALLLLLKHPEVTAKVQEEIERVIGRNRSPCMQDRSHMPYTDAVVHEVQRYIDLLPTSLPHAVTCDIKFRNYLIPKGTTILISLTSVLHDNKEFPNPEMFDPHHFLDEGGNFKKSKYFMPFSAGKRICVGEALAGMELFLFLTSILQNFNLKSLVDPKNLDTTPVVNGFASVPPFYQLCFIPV

With `CC1CCN(S(=O)(=O)c2ccc3c(c2)c(=O)c(C(=O)NCc2ccco2)cn3C)CC1` the IC50 [1] was 2.4 µM (active) and the IC50 [2] was 3.81 µM (active).
With `COc1ccccc1NC(=O)c1sc2ncn(Cc3cccc(C)c3)c(=O)c2c1C` the IC50 [3] was > 50 µM (not active).
With `COC(=O)c1nnc(NC(=O)c2ccccc2)[nH]1` the IC50 [3] was 0.0545 µM (active), the AC50 [4] was 17.8 µM (inconclusive) and the AC50 [5] was 3.98 µM (inconclusive).
In the case of `CCn1cc(C(=O)NCc2ccco2)c(=O)c2cc(S(=O)(=O)N3CCCC3)ccc21`, the IC50 [3] is reported as 1.31 µM (active).
With `Cc1nc(Sc2ccccc2)c(C#N)c(C)c1[N+](=O)[O-]` the IC50 [1] was 8.81 µM (active) and the IC50 [2] was 13.9 µM (active).
For `O=C(Cn1nc(-c2ccco2)ccc1=O)Nc1cc(C(F)(F)F)ccc1Cl`, the IC50 [1] was 13.1 µM (active) and the IC50 [2] was 11.8 µM (active).
In the case of `O=C(Nc1nccs1)c1ccc2nccnc2c1`, the IC50 [6] is reported as 14.9 µM (active).
For `CC(C)N1CCc2c(sc(NC(=O)c3cc4cc([N+](=O)[O-])ccc4s3)c2C(N)=O)C1`, the EC50 [7] was > 53 µM (inactive) and the AC50 [8] was 10.3 µM (active).
For `CC(C)c1ccc(S(=O)(=O)c2nnn3c2nc(NCC2CCCO2)c2ccccc23)cc1` (stereo not drawn), the IC50 [1] was 1.34 µM (active) and the IC50 [2] was 1.72 µM (active).
With `Nc1nonc1NC(=O)CSc1ncccc1C(=O)O` the IC50 [6] was > 50 µM (not active).
In the case of `COC(=O)c1sc(-c2ccc(C(C)(C)C)cc2)cc1NC(=O)CSCC(=O)O`, the EC50 [9] is reported as 8.94 µM (active), the IC50 [10] is reported as 14.1 µM (active) and the CC50 [11] is reported as 15.7 µM (active). For the same molecule, the EC50 [12] was 12.1 µM (active), the EC50 [13] was 6.69 µM (active) and the EC50 [7] was 36.8 µM (active). The IC50 [14] was 4.1 µM (active).
In the case of `COc1cccc(NC(=O)CN2C(=O)CSc3ccc(S(=O)(=O)N4CCC(C)CC4)cc32)c1`, the IC50 [1] is reported as 2.44 µM (active) and the IC50 [2] is reported as 6.24 µM (active).
With `O=[N+]([O-])c1ccc(Sc2ccccc2)nc1` the IC50 [10] was 5.42 µM (active), the EC50 [15] was > 260 µM (inactive) and the EC50 [7] was > 53 µM (inactive). The IC50 [14] was < 0.368 µM (active).
In the case of `CCCCc1nc2sc3c(SCCN(C)C)ncnc3c2c2c1CCC2`, the AC50 [8] is reported as 19.7 µM (active) and the CC50 [16] is reported as 20.6 µM (active).
With `CCCC(=O)n1nc(-c2ccccc2)nc1SC` the IC50 [3] was 0.935 µM (active).
